The results in this text go back to patent US10166253B2, “Positively charged co-polymers for use as antimicrobial agents” (priority 2014, dated 2019).

One test concerns E. coli (NCTC 10418). Description: Binding of Alexa Fluor 488-labeled GA to bacteria (MFI by flow cytometry). The conditions noted are these: PBS + 50 mM NaCl, total salt 200 mM, GA 50 and 10 μg/ml. Also noted: species or system Escherichia coli. The procedure: GA was diluted in freshly made 0.1 M NaHCO3 and labeled with Alexa Fluor 488 according to manufacturer's instruction. Late-log phase E. coli (strain NCTC 10418), P. aeruginosa (strain PAO1, ATCC 15692) and S. aureus (Wood 46, NCTC 7121) were resuspended in PBS or PBS supplemented with 50 mM NaCl; treated with either 50 μg/ml or 10 μg/ml Alexa Fluor® 488-labeled GA and incubated on a shaker at 37° C. for 30 minutes. Hereafter, bacteria were diluted 1:100 in PBS and analyzed on a Novocyte™ flow cytometer.
This constitutes a problem when for example treating patients with cystic fibrosis. These patients have a high salt concentration in their lungs of about 150-200 mM, and it is therefore critical that drugs used for treating these patients are active at such high salt concentrations (Gilljam H et al., Scand J Clin Lab Invest. 1989 April; 49(2):121-4). Therefore, the binding capacity of GA to bacteria resuspended in PBS or in PBS supplemented with 50 mM NaCl. PBS+50 mM NaCl results in a total salt concentration of 200 mM. […]
Mean Fluorescence intensities (MFI) were assessed by flow cytometry to quantify the binding capacity of GA to the bacterial membrane. […]

The next test relates to S. aureus (Wood 46). Put plainly: Transmission electron microscopy of treated bacteria. In kind it is cell-based, Staphylococcus aureus. From the text:
Transmission electron microscopy (TEM) was applied to examine the ultrastructural changes in P. aeruginosa (PAO1), S. aureus (Wood 46) and E. coli (NCTC 10418) induced after treatment with GA and LL-37. […] This critical alteration in the outer membrane of E. coli has previously been described as a disintegration of the outer membrane into micelles and vesicle-like structures (Meincken, M., D. L. Holroyd, and M. Rautenbach, Atomic force microscopy study of the effect of antimicrobial peptides on the cell envelope of Escherichia coli. Antimicrob Agents Chemother, 2005. 49(10): p. 4085-92). […] After incubation with LL-37 and GA, we found burst cells, but this observation was most significant after treatment with LL-37 (FIG. 9). Scale bar, 0.5 μm. Experiments were performed as 2 replicates.

A further test relates to P. aeruginosa (PAO1). Description: Antimicrobial activity in human serum and plasma (flow cytometry, PI/Syto9). The conditions noted are these: P. aeruginosa PAO1 ~10^8 cells/ml. In kind it is cell-based, Pseudomonas aeruginosa. An excerpt:
It has been reported that the antimicrobial activity of antimicrobial peptides are inhibited by their binding to different factors in human plasma (Wang, Y., et al., Apolipoprotein A-I binds and inhibits the human antibacterial/cytotoxic peptide LL-37. J Biol Chem, 1998. 273(50): p. 33115-8), serum and is influenced by pH and ion composition (Johansson, J., et al., Conformation-dependent antibacterial activity of the naturally occurring human peptide LL-37. J Biol Chem, 1998. 273(6): p. 3718-24). To investigate the potential of GA for systemic application, bacterial isolates of P. aeruginosa (PAO1, ˜10^8 cells/ml) were incubated with increasing concentrations of GA and compared to LL-37. Bacterial survival and enumeration was evaluated by a flow cytometry bead standard and stained with propidium iodide and Syto9 following procedures as previously described above in the antimicrobial susceptibility testing by flow cytometry-based assay. […] All experiments were performed as four replicates.

Test [1] deals with P. aeruginosa (strain PAO1, ATCC 15692). Put plainly: Colony-forming unit (CFU) counting. In kind it is cell-based, Pseudomonas aeruginosa. The note with it: 30 minutes at 37° C. in PBS, in comparison with LL-37. The procedure: Late-log phase E. coli (strain NCTC 10418), P. aeruginosa (strain PAO1, ATCC 15692) and S. aureus (Wood 46, NCTC 7121) were resuspended in PBS and treated with different concentrations of glatiramer acetate (GA) or LL-37 (Innovagen, Lund, Sweden) and incubated on a shaker for 30 minutes at 37° C. Subsequently, a dilution series was performed to achieve a suitable amount of bacteria on the 5% blood agar plates. The 5% blood agar streak plates were cultured at 37° C. for 16 h and the resulting CFUs on the blood agar plates were imaged with a digital camera and counted with the aid of the software ImageJ 1.48v.

Consider Glatiramer acetate [GA], for which the “binding capacity to bacteria (MFI, in words)” value in the test with E. coli (NCTC 10418) is “retained its binding capacity”. The “ultrastructural changes (TEM, in words)” value in the test on S. aureus (Wood 46) was “burst cells”. The “antimicrobial activity in human plasma and serum (in words)” value with P. aeruginosa (PAO1) is on record as “retains antimicrobial activity”. Further, the “antibacterial effect by CFU counting (in words)” value in test [1] is recorded as “higher antimicrobial activity”.
